Reference: patent publication US6890762B1, “Method for measuring physiocochemical properties of tissues of cells, method for examining chemicals, and apparatus therefor” (Matsushita Technical Information Services Co., Ltd., priority 1996, dated 2005)

How the values were obtained:
slice of a rat heart = assay: spontaneous activity potential of cultivated rat heart slice on integrated multiple electrode; type: cell-based; settings: final concentration of 1 mM, added on the fifth day of the culturing
Excerpt: This slice of a rat heart has been cultivated as explained below. […] The same culture medium as described in the first example was used. The structure of the integrated multiple electrode 2 and the surface processing was the same as described in the first example. In order to increase the adhesive strength between the tissue (the cells) and the microelectrodes 11 of the integrated multiple electrode 2, collagen gel (under 50 μm thick) has been applied to the surface of the integrated multiple electrode 2 before the culturing. Then the rat heart slice is placed and cultivated on the collagen gel where the microelectrodes 11 are. The rat heart slice is prepared, so that a sinoatrial node or an atrioventricular node is included. […] This culturing method is explained below. (a) A heart is taken from a two days old SD rat, and immersed in a Hanks' balanced salt solution cooled with ice water, with 0.25 vol. % D-glucose. The hanks' balanced salt solution is renewed several times to rinse out the blood completely. (b) Careful incision and preparation of a heart slice is performed, so that a sinoatrial node and an atrioventricular node are included in the heart slice. (c) The slice is adjusted with micro-scissors used in eye surgery to a size of about 1×1 mm. […]

[1] = test system: slice of the cerebral cortex of a rat; assay: induced potential of cultivated rat cerebral cortex slice on integrated multiple electrode; type: cell-based; settings: for chronic effect on the induced potential: 3 days after addition on the third day of culturing
Method: In this example, a slice of the cerebral cortex of a rat was used as nervous tissue and cultivated with the culturing method described below. As a change in the physical and chemical environment, the stimulant drug methamphetamine has been added to the culturing fluid. Furthermore, the electrophysiological properties of the tissue or cells, that is the induced potential when a stimulus has been applied, were measured as the physical and chemical properties of the tissue or cells.
Preceding the culturing of the cells, the surface of the integrated multiple electrode 2 was covered with collagen gel not thicker than 50 μm, to promote the adhesive strength between the microelectrodes 11 of the integrated multiple electrode 2 and the cells. Then the cerebral cortex slice of the rat (not thicker than 500 μm) was placed and cultivated on top of the microelectrodes 11 and the collagen gel. FIGS. 10(a)-(e) show the measured induced potentials 30 min after methamphetamine has been added in different concentrations to the culture medium on the sixth day of culturing, and FIGS. 11(a)-(c) show the measured induced potentials 3 days after methamphetamine has been added in different concentrations to the culture medium on the third day of culturing, together with the induced potential before the addition of the methamphetamine. In other words, FIGS. 10(a)-(e) show the acute effect of the methamphetamine and FIGS. 11(a)-(c) show the chronic effect of the methamphetamine.
(4-2) Culturing Method for a Rat Cerebral Cortex Slice
(a) A brain is taken from a two days old SD rat, and immersed in a Hanks' balanced salt solution cooled in iced water, with 0.25 vol. % D-glucose.
(b) In the cooled Hanks' balanced salt solution with 0.25 vol.% D-glucose, the meninges attached to the brain is removed carefully without damaging the cerebral cortex with a sharp-tipped pincette.
(c) A section is made with micro-scissors used in eye surgery, about 500 μm from the corpus callosum on one side of the cerebral cortex from which the meninges has been removed along the corpus callosum from the occipital lobe towards the frontal lobe.
(d) Next, a slice is prepared with micro-scissors used in eye surgery by cutting vertically 200-300 μm into the cerebral cortex from the sectional plane described under (c).
(e) Furthermore, the slice is adjusted with micro-scissors used in eye surgery to a size of about 1×1 mm.
(f) The integrated multiple electrode, the preparation of which has been explained under “(3) Surface Processing of the Integrated Multiple Electrode 2”, is taken out of the CO2 incubator, the adjusted slice of the cerebral cortex is carefully taken up without damaging it with a pipette with at least 2 mm opening diameter, and moved into the well of the integrated multiple electrode 2.
(g) The cerebral cortex is placed on the microelectrodes 11 with a layered portion pointing upwards, carefully so as not to damage the cerebral cortex, using a Pasteur pipette, the tip of which has been smoothed by heating with a burner.
(h) After the slice of the cerebral cortex has been placed on the integrated multiple electrode 2, the amount of the culture medium is adjusted so that the bottom of the slice is immersed in the culture medium and the top of the slice is in the open air.
(i) After the adjustment of the culture medium, the integrated multiple electrode 2 is placed on a Petri dish, about 5 mL of 37° C. sterile water is poured onto the Petri dish to prevent dehydration of the culture medium, and the integrated multiple electrode 2 is again placed in the CO2 incubator.
(j) While observing the amount of the culture medium, the culture medium was renewed once every day. The amount of the culture medium is adjusted as described in (i).

CNCC(O)c1ccc(O)c(O)c1 (centres unmarked) [adrenaline]
beat frequency of the spontaneous activity potential versus before the addition (slice of a rat heart): noticeably higher

CN[C@@H](C)Cc1ccccc1 [methamphetamine]
chronic effect on the induced potential ([1]; 0.01 mM methamphetamine): disappeared
acute effect on the induced potential ([1]; 0.1 mM methamphetamine, 30 min after addition on the sixth day of culturing): no noticeable acute effect
chronic effect on the induced potential ([1]; 0.1 mM methamphetamine): disappeared almost completely
acute effect on the induced potential (deflection) ([1]; 0.5 mM methamphetamine, 30 min after addition on the sixth day of culturing): somewhat smaller
acute effect on the induced potential ([1]; 1 mM methamphetamine, 30 min after addition on the sixth day of culturing): disappeared almost completely
induced potential after removal of the substance (chronic) ([1]; after the methamphetamine has been removed, chronic exposure): did not recover
induced potential after removal of the substance (acute) ([1]; methamphetamine removed from the fluid, culture medium returned to usual composition): recovered to almost the same condition as before
